Where two headings read alike, the source gives them in different places.

Usually Kd stands for the concentration at which binding is half-saturated.

Test [1] has as its target Galectin-1 (Homo sapiens, UniProt P09382). Briefly: fluorescence anisotropy assay, compound as inhibitor of galectin / fluorescein tagged saccharide probe interaction. Type of test: binding. The text has this: (§1) Anal. Biochem. 334: 36-47, (Sörme et al., 2004) and Monovalent interactions of Galectin-1 By Salomonsson, Emma; Larumbe, Amaia; Tejler, Johan; Tullberg, Erik; Rydberg, Hanna; Sundin, Anders; Khabut, Areej; Frejd, Torbjorn; Lobsanov, Yuri D.; Rini, James M.; et al, From Biochemistry (2010), 49(44), 9518-9532, (Salomonsson et al., 2010).
Background: Polarisation of emitted light reports the rotation of a fluorescent probe.

Test [2] concerns the target Galectin-3 (Homo sapiens, UniProt P17931). The test is described as above. In kind it is binding.
From the text: as §1

Chain of Galectin-1 (P09382 whole entry): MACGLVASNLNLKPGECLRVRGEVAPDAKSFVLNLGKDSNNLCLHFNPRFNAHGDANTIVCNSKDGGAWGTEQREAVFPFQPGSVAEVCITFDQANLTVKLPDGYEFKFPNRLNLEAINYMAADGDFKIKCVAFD
Chain of Galectin-3 (P17931 whole entry): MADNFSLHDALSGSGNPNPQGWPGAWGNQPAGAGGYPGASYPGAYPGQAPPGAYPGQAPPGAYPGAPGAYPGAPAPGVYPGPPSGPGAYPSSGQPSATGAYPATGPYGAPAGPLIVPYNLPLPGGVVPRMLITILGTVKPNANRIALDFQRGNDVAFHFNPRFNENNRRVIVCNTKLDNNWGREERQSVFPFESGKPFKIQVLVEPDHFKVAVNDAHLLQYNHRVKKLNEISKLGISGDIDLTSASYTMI

Take `CO[C@@H]1[C@@H](n2cc(-c3csc(N)n3)nn2)[C@@H](O)[C@@H](CO)O[C@@H]1Sc1cc(Cl)cnc1-c1ccccn1` [Example 26, 5-Chloro-2-(pyridin-2-yl)pyridin-3-yl 3-[4-(2-aminothiazol-4-yl)-1H-1,2,3-triazol-1-yl]-3-deoxy-2-O-methyl-1-thio-α-D-galactopyranoside]: the Kd in test [1] amounted to 17 nM; in test [2] it was 1700 nM.
On to `CO[C@@H]1[C@@H](n2cc(-c3csc(N)n3)nn2)[C@@H](O)[C@@H](CO)O[C@@H]1Sc1cc(Cl)cnc1-c1ncco1` [Example 27, 5-Chloro-2-(oxazol-2-yl)pyridin-3-yl 3-[4-(2-aminothiazol-4-yl)-1H-1,2,3-triazol-1-yl]-3-deoxy-2-O-methyl-1-thio-α-D-galactopyranoside], for which the Kd is 28 nM in test [1] and 3200 nM in test [2].
For `COC1C(n2cc(-c3csc(N)n3)nn2)[C@@H](O)C(CO)O[C@@H]1Sc1ccc(Cl)c(Cl)c1` (stereo partly drawn) [Example 28, 3,4-Dichlorphenyl 3-[4-(2-aminothiazol-4-yl)-1H-1,2,3-triazol-1-yl]-3-deoxy-2-O-methyl-1-thio-α-D-galactopyranoside], the values for the Kd in test [1] (read-out: Galectin-1 Kd) and in test [2] were 63 nM and 2400 nM, respectively.
As to `CO[C@@H]1[C@@H](n2cc(-c3csc(N)n3)nn2)[C@@H](O)[C@@H](CO)O[C@@H]1Sc1cc(Cl)cnc1-c1nccs1` [Example 29, 5-Chloro-2-(thiazol-2-yl)pyridin-3-yl 3-[4-(2-aminothiazol-4-yl)-1H-1,2,3-triazol-1-yl]-3-deoxy-2-O-methyl-1-thio-α-D-galactopyranoside], the Kd in test [1] was 48 nM; in test [2] it was 8700 nM.
Consider `CO[C@@H]1[C@@H](n2cc(-c3csc(N)n3)nn2)[C@@H](O)[C@@H](CO)O[C@@H]1Sc1ccc(C(F)(F)F)c(Cl)c1` [Example 30, 3-Chloro-4-(trifluoromethyl)phenyl 3-[4-(2-aminothiazol-4-yl)-1H-1,2,3-triazol-1-yl]-3-deoxy-2-O-methyl-1-thio-α-D-galactopyranoside], for which the Kd in test [1] was 120 nM; in test [2] it was 2500 nM.
Regarding `CO[C@@H]1[C@@H](n2cc(-c3csc(N)n3)nn2)[C@@H](O)[C@@H](CO)O[C@@H]1Sc1cccc(Cl)c1` [Example 31, 3-Chlorophenyl 3-[4-(2-aminothiazol-4-yl)-1H-1,2,3-triazol-1-yl]-3-deoxy-2-O-methyl-1-thio-α-D-galactopyranoside], the figures for the Kd in test [1] and in test [2] were 200 nM and 5600 nM, respectively.
The like results for `Cc1sc(N)nc1-c1cn(C2C(O)[C@@H](Sc3cnc(C(F)(F)F)c(Br)c3)OC(CO)[C@@H]2O)nn1` (stereo partly drawn) [Example 33] were, in that order, 500 nM and 3000 nM.
With `CO[C@@H]1[C@@H](n2cc(-c3nc(C)cs3)nn2)[C@@H](O)[C@@H](CO)O[C@@H]1Sc1cc(Br)cnc1C#N` [Example 34, 5-Bromo-2-cyanopyridin-3-yl 3-deoxy-3-[4-(4-methylthiazol-2-yl)-1H-1,2,3-triazol-1-yl]-2-O-methyl-1-thio-α-D-galactopyranoside], the Kd in test [1] came to 53 nM; in test [2], 1400 nM.
`CO[C@@H]1[C@@H](n2cc(-c3nc(C)cs3)nn2)[C@@H](O)[C@@H](CO)O[C@@H]1Sc1cc(C)cnc1C#N` [Example 35, 2-Cyano-5-methylpyridin-3-yl 3-deoxy-3-[4-(4-methylthiazol-2-yl)-1H-1,2,3-triazol-1-yl]-2-O-methyl-1-thio-α-D-galactopyranoside]: the Kd in test [1] was 490 nM; in test [2] it was 9000 nM.
On to `CO[C@@H]1[C@@H](n2cc(-c3nc(Cl)cs3)nn2)[C@@H](O)[C@@H](CO)O[C@@H]1Sc1cc(C)cnc1C#N` [Example 36, 2-Cyano-5-methylpyridin-3-yl 3-[4-(4-chlorothiazol-2-yl)-1H-1,2,3-triazol-1-yl]-3-deoxy-2-O-methyl-1-thio-α-D-galactopyranoside], for which the Kd in test [1] was 190 nM; in test [2], 700 nM.
With `C#Cc1cncc(S[C@H]2O[C@H](CO)[C@H](O)[C@H](n3cc(-c4nc(Cl)cs4)nn3)[C@H]2OC)c1` [Example 37, 5-Ethynylpyridin-3-yl 3-[4-(4-chlorothiazol-2-yl)-1H-1,2,3-triazol-1-yl]-3-deoxy-2-O-methyl-1-thio-α-D-galactopyranoside], the Kd in test [1] was found to be 200 nM; in test [2], 390 nM.
Turning to `COC1C(n2cc(-c3csc(N)n3)nn2)[C@@H](O)C(CO)O[C@@H]1Sc1cc(Cl)cnc1N1CC2(COC2)C1` (stereo partly drawn) [Example 38, 5-Chloro-2-{N-(2-oxa)-6-azaspiro[3.3]heptanyl}-pyridin-3-yl 3-[4-(2-aminothiazol-4-yl)-1H-1,2,3-triazol-1-yl]-3-deoxy-2-O-methyl-1-thio-α-D-galactopyranoside], the values for the Kd in test [1] and in test [2] were 100 nM and 6100 nM, respectively.
Turning to `CO[C@@H]1[C@@H](n2cc(-c3csc(N)n3)nn2)[C@@H](O)[C@@H](CO)O[C@@H]1Sc1ccc(C#N)c(Cl)c1` [Example 39, 3-Chloro-4-cyanophenyl 3-[4-(2-aminothiazol-4-yl)-1H-1,2,3-triazol-1-yl]-3-deoxy-2-O-methyl-1-thio-α-D-galactopyranoside], the values for the Kd in test [1] and in test [2] were 71 nM and 3600 nM, respectively.
As to `CO[C@@H]1[C@@H](n2cc(-c3csc(N)n3)nn2)[C@@H](O)[C@@H](CO)O[C@@H]1Sc1cncc(C#N)c1` [Example 40, 5-Cyanopyridin-3yl 3-[4-(2-aminothiazol-4-yl)-1H-1,2,3-triazol-1-yl]-3-deoxy-2-O-methyl-1-thio-α-D-galactopyranoside], the Kd in test [1] turned out to be 240 nM; in test [2], 10700 nM.
On to `OC[C@H]1O[C@H](Sc2cc(Cl)c(F)c(Cl)c2)C[C@@H](n2cc(-c3csc(O)n3)nn2)[C@H]1O` [Example 41, 3,5-Dichloro-4-fluorophenyl 2,3-dideoxy-3-[4-(2-hydroxythiazol-4-yl)-1H-1,2,3-triazol-1-yl]-1-thio-α-D-galactopyranoside], for which the Kd in test [1] was found to be 130 nM; in test [2], 9300 nM.
In the same order, the values of `N#Cc1ccc(S[C@@H]2C[C@@H](n3cc(-c4csc(N)n4)nn3)[C@@H](O)[C@@H](CO)O2)cc1Cl` [Example 42, 3-Chloro-4-cyanophenyl 3-[4-(2-aminothiazol-4-yl)-1H-1,2,3-triazol-1-yl]-2,3-dideoxy-1-thio-α-D-galactopyranoside] are 730 nM and 10300 nM.
Consider `N#Cc1ccc(Cl)cc1S[C@@H]1C[C@@H](n2cc(-c3nc(Cl)cs3)nn2)[C@@H](O)[C@@H](CO)O1` [Example 43, 5-Chloro-2-cyanophenyl 3-[4-(4-chlorothiazol-2-yl)-1H-1,2,3-triazol-1-yl]-2,3-dideoxy-1-thio-α-D-galactopyranoside], for which the results for the Kd in test [1] and in test [2] were 130 nM and 1200 nM, respectively.
In the same order, the values of `CO[C@@H]1[C@@H](n2cc(-c3csc(N)n3)nn2)[C@@H](O)[C@@H](CO)O[C@@H]1Sc1cnc(C(F)(F)F)c(C#N)c1` [Example 44, 3-Cyano-2-(trifluoromethyl)pyridin-5-yl 3-[4-(2-aminothiazol-4-yl)-1H-1,2,3-triazol-1-yl]-3-deoxy-2-O-methyl-1-thio-α-D-galactopyranoside] are 360 nM and 16700 nM.

(Values after US12441754B2, “Galactoside inhibitor of galectins” (GALECTO BIOTECH AB, priority 2019, dated 2025).)
